Results reported in PubChem BioAssay AID248 (DTP/NCI, 2004).
Values joined by “and” are separate entries in the source; they are usually repeats but may differ in a detail not shown here. Equal entries are not always repeated. Toxic doses and inconclusive results are not listed. Rule as the data show it: active = T/C of 150% or more; inactive = T/C below 125%.

System: L1210 leukemia ip in BDF1 mice, survival T/C
Assay: NCI In Vivo Anticancer Drug Screen. Data for tumor model L1210 Leukemia (intraperitoneal) in B6D2F1 (BDF1) mice
Settings: endpoint: mean survival time, higher = longer survival
Outline: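 Transplantable tumor model; survival measured in treated vs vehicle control mice. Value = treated/control.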

[1] = dose: 100.0 mg/kg/injection, schedule: Q01DX009 (ip), vehicle: Klucel (hydroxypropylcellulose) (HPC)
[2] = dose: 100.0 mg/kg/injection, schedule: Q04DX003 (ip), vehicle: Klucel (hydroxypropylcellulose) (HPC)
[3] = dose: 200.0 mg/kg/injection, schedule: Q01DX009 (ip), vehicle: Klucel (hydroxypropylcellulose) (HPC)
[4] = dose: 200.0 mg/kg/injection, schedule: Q04DX003 (ip), vehicle: Klucel (hydroxypropylcellulose) (HPC)
[5] = dose: 400.0 mg/kg/injection, schedule: Q01DX009 (ip), vehicle: Klucel (hydroxypropylcellulose) (HPC)
[6] = dose: 400.0 mg/kg/injection, schedule: Q04DX003 (ip), vehicle: Klucel (hydroxypropylcellulose) (HPC)
[7] = dose: 100.0 mg/kg/injection, schedule: Q01DX001 (ip), vehicle: saline
[8] = dose: 200.0 mg/kg/injection, schedule: Q01DX001 (ip), vehicle: saline
[9] = dose: 400.0 mg/kg/injection, schedule: Q01DX001 (ip), vehicle: saline
[10] = dose: 100.0 mg/kg/injection, schedule: Q01DX001 (ip), vehicle: saline with Tween-80
[11] = dose: 50.0 mg/kg/injection, schedule: Q01DX009 (ip), vehicle: saline with Tween-80
[12] = dose: 100.0 mg/kg/injection, schedule: Q04DX003 (ip), vehicle: saline with Tween-80
[13] = dose: 200.0 mg/kg/injection, schedule: Q04DX003 (ip), vehicle: saline with Tween-80
[14] = dose: 100.0 mg/kg/injection, schedule: Q04DX002 (ip), vehicle: Klucel (hydroxypropylcellulose) (HPC)
[15] = dose: 200.0 mg/kg/injection, schedule: Q04DX002 (ip), vehicle: Klucel (hydroxypropylcellulose) (HPC)
[16] = dose: 400.0 mg/kg/injection, schedule: Q04DX002 (ip), vehicle: Klucel (hydroxypropylcellulose) (HPC)
[17] = dose: 25.0 mg/kg/injection, schedule: Q01DX009 (ip), vehicle: saline
[18] = dose: 100.0 mg/kg/injection, schedule: Q01DX009 (ip), vehicle: saline with Tween-80
[19] = dose: 200.0 mg/kg/injection, schedule: Q01DX009 (ip), vehicle: saline with Tween-80

Measured: T/C

CN=NC(C)(c1ccc(Cl)cc1)C(C)(N=NC)c1ccc(Cl)cc1 (stereo not drawn)
inactive: dose: 17.5 mg/kg/injection, schedule: Q01DX009 (ip), vehicle: Klucel (hydroxypropylcellulose) (HPC) 92 % of control | dose: 35.0 mg/kg/injection, schedule: Q01DX009 (ip), vehicle: Klucel (hydroxypropylcellulose) (HPC) 103 % of control | dose: 70.0 mg/kg/injection, schedule: Q01DX009 (ip), vehicle: Klucel (hydroxypropylcellulose) (HPC) 100 % of control

ClC1(c2ccccc2)c2ccc(Br)cc2-c2cc(Br)ccc21
inactive: [1] 103 % of control | [2] 104 % of control | [3] 100 % of control | [4] 107 % of control | [5] 108 % of control | [6] 94 % of control

Cc1cn(C2OC(CO)C(O[Si](C)(C)C)C(O[Si](C)(C)C)C2O[Si](C)(C)C)c(=O)[nH]c1=O (stereo not drawn)
inactive: [7] 97 % of control | [8] 94 % of control | [9] 97 % of control

O=[N+]([O-])c1cnc(C2=C(O)c3ccccc3CC2)s1
inactive: [10] 97 % of control

CCC1=C2C(=O)c3ccccc3C2=C(C)S(=O)(=O)O1
inactive: dose: 12.5 mg/kg/injection, schedule: Q01DX009 (ip), vehicle: saline with Tween-80 95 % of control | dose: 25.0 mg/kg/injection, schedule: Q01DX009 (ip), vehicle: saline with Tween-80 108 % of control | [11] 94 % of control and 111 % of control | [12] 96 % of control | [13] 96 % of control

CCOC(=O)NOS(=O)(=O)c1ccc([N+](=O)[O-])cc1
inactive: [12] 100 % of control | [13] 96 % of control | dose: 400.0 mg/kg/injection, schedule: Q04DX003 (ip), vehicle: saline with Tween-80 98 % of control

O=C1c2ccccc2C(=O)N1[N+](=O)[O-]
inactive: dose: 50.0 mg/kg/injection, schedule: Q01DX001 (ip), vehicle: saline 101 % of control | [7] 107 % of control | [8] 107 % of control | [9] 103 % of control

OC1CC23C=CC2(C1)C1(CC3)OCCO1 (stereo not drawn)
inactive: dose: 50.0 mg/kg/injection, schedule: Q04DX002 (ip), vehicle: saline with Tween-80 92 % of control | dose: 100.0 mg/kg/injection, schedule: Q04DX002 (ip), vehicle: saline with Tween-80 92 % of control | dose: 200.0 mg/kg/injection, schedule: Q04DX002 (ip), vehicle: saline with Tween-80 95 % of control | dose: 400.0 mg/kg/injection, schedule: Q04DX002 (ip), vehicle: saline with Tween-80 98 % of control

C[C@@H]1C[C@@]2(C)[C@@H](CC[C@@H]3[C@@H]2CC[C@]2(C)OC(=O)CC[C@@H]32)CC1=O
inactive: dose: 50.0 mg/kg/injection, schedule: Q01DX009 (ip), vehicle: Klucel (hydroxypropylcellulose) (HPC) 95 % of control | [1] 97 % of control | dose: 100.0 mg/kg/injection, schedule: Q04DX003 (ip), vehicle: other 98 % of control | [3] 100 % of control | dose: 200.0 mg/kg/injection, schedule: Q04DX003 (ip), vehicle: other 101 % of control

CC1(c2ccccc2)OC(=O)c2c1ccc1ccccc21 (stereo not drawn)
inactive: [10] 94 % of control | dose: 200.0 mg/kg/injection, schedule: Q01DX001 (ip), vehicle: saline with Tween-80 95 % of control | dose: 400.0 mg/kg/injection, schedule: Q01DX001 (ip), vehicle: saline with Tween-80 90 % of control

Cc1ccc(OCC(=O)Nc2ccc(Cl)cc2)c(C)c1
inactive: dose: 100.0 mg/kg/injection, schedule: Q01DX001 (ip), vehicle: other 95 % of control | dose: 200.0 mg/kg/injection, schedule: Q01DX001 (ip), vehicle: other 98 % of control | dose: 400.0 mg/kg/injection, schedule: Q01DX001 (ip), vehicle: other 98 % of control

CCCCC(=O)N/N=C/c1ccccc1OCC
inactive: [7] 102 % of control | [8] 107 % of control | [9] 93 % of control

CC1CCCC(C)N1C(=O)Nc1cccc(F)c1 (stereo not drawn)
inactive: [1] 99 % of control | [3] 101 % of control | [5] 94 % of control

Cc1ccccc1S(=O)(=O)/C(=C(/I)c1ccccc1)c1ccccc1
inactive: [7] 90 % of control | [8] 92 % of control | [9] 95 % of control

NC(=O)Nc1ccccc1
inactive: [1] 103 % of control | [14] 109 % of control | [3] 106 % of control | [15] 109 % of control | [5] 103 % of control | [16] 88 % of control

C=CCc1cc(CNCCCOCC)c(O)c(OC)c1
inactive: dose: 12.5 mg/kg/injection, schedule: Q04DX003 (ip), vehicle: Klucel (hydroxypropylcellulose) (HPC) 97 % of control | dose: 25.0 mg/kg/injection, schedule: Q04DX003 (ip), vehicle: Klucel (hydroxypropylcellulose) (HPC) 95 % of control | dose: 50.0 mg/kg/injection, schedule: Q04DX003 (ip), vehicle: Klucel (hydroxypropylcellulose) (HPC) 92 % of control

COc1ccc(/C=N/NC(=O)c2ccccc2N)cc1
inactive: [14] 98 % of control | [15] 106 % of control | [16] 106 % of control

O=C(/C(=C1\SS/C(=C(/C(=O)c2ccccc2)c2ccccc2)S1)c1ccccc1)c1ccccc1
inactive: dose: 100.0 mg/kg/injection, schedule: Q01DX001 (ip), vehicle: Klucel (hydroxypropylcellulose) (HPC) 114 % of control | [2] 100 % of control | dose: 200.0 mg/kg/injection, schedule: Q01DX001 (ip), vehicle: Klucel (hydroxypropylcellulose) (HPC) 108 % of control | [4] 97 % of control | dose: 400.0 mg/kg/injection, schedule: Q01DX001 (ip), vehicle: Klucel (hydroxypropylcellulose) (HPC) 104 % of control | [6] 94 % of control

Cc1c(-c2ccccc2)cc(O)cc1-c1ccccc1
inactive: [17] 98 % of control | dose: 50.0 mg/kg/injection, schedule: Q01DX009 (ip), vehicle: saline 98 % of control | dose: 100.0 mg/kg/injection, schedule: Q01DX009 (ip), vehicle: saline 105 % of control | dose: 200.0 mg/kg/injection, schedule: Q01DX009 (ip), vehicle: saline 100 % of control

O=C(O)CCNc1ccc(Cl)cc1[N+](=O)[O-]
inactive: [14] 97 % of control | [15] 120 % of control

CC(=O)Nc1ccc(C(C)(C)CC(=O)O)cc1[N+](=O)[O-]
inactive: [11] 90 % of control | [18] 87 % of control | [19] 87 % of control

CCC1([N+](=O)[O-])COP(N)(=O)OC1 (stereo not drawn)
inactive: dose: 5.0 mg/kg/injection, schedule: Q01DX001 (ip), vehicle: saline 105 % of control | dose: 10.0 mg/kg/injection, schedule: Q01DX001 (ip), vehicle: saline 107 % of control | dose: 20.0 mg/kg/injection, schedule: Q01DX001 (ip), vehicle: saline 124 % of control | dose: 40.0 mg/kg/injection, schedule: Q01DX001 (ip), vehicle: saline 100 % of control | dose: 80.0 mg/kg/injection, schedule: Q01DX001 (ip), vehicle: saline 96 % of control

Cc1nc(N2CCCCC2)[nH]c(=O)c1CN(C)N=O
inactive: [11] 94 % of control | [18] 94 % of control | [19] 102 % of control

O=C(CCl)NCc1ccc(Cl)c(C(=O)O)c1
inactive: [7] 103 % of control | dose: 100.0 mg/kg/injection, schedule: Q04DX003 (ip), vehicle: saline 98 % of control | [8] 99 % of control | dose: 200.0 mg/kg/injection, schedule: Q04DX003 (ip), vehicle: saline 88 % of control | [9] 89 % of control | dose: 400.0 mg/kg/injection, schedule: Q04DX003 (ip), vehicle: saline 96 % of control

CCCCCCCCCC(=O)N1C(C)CCC1C (stereo not drawn)
inactive: dose: 100.0 mg/kg/injection, schedule: Q04DX002 (ip), vehicle: other 103 % of control | dose: 200.0 mg/kg/injection, schedule: Q04DX002 (ip), vehicle: other 107 % of control

Cc1cc[n+](Cc2ccccc2Cl)cc1
inactive: dose: 6.25 mg/kg/injection, schedule: Q01DX009 (ip), vehicle: saline 97 % of control | dose: 6.25 mg/kg/injection, schedule: Q04DX003 (ip), vehicle: saline 96 % of control | dose: 12.5 mg/kg/injection, schedule: Q01DX009 (ip), vehicle: saline 97 % of control | dose: 12.5 mg/kg/injection, schedule: Q04DX003 (ip), vehicle: saline 107 % of control | [17] 100 % of control | dose: 25.0 mg/kg/injection, schedule: Q04DX003 (ip), vehicle: saline 89 % of control
